In patent US10513523B2, “Imidazopyrazines and pyrazolopyrimidines and their use as AMPA receptor modulators” (Janssen Pharmaceutica NV, priority 2015, dated 2019):

target: GluA1o-γ8 (GRIA1o-CACNG8 fusion construct; TARP γ8 dependent AMPA receptor) (Homo sapiens (Human), UniProt P42261+Q8WXS5); experiment: Calcium flux assay (FLIPR), inhibition of glutamate response of GluA1o-γ8 channel; assay type: cell-based; settings: HEK293 cells stably expressing GRIA1o-CACNG8 fusion; 15 μM glutamate; pIC50 = negative log of IC50 in molar; read-out: GluR1-γ8 (pIC50) (converted)
Sequence (P42261 other isoform, or with tags, fused parts or gaps): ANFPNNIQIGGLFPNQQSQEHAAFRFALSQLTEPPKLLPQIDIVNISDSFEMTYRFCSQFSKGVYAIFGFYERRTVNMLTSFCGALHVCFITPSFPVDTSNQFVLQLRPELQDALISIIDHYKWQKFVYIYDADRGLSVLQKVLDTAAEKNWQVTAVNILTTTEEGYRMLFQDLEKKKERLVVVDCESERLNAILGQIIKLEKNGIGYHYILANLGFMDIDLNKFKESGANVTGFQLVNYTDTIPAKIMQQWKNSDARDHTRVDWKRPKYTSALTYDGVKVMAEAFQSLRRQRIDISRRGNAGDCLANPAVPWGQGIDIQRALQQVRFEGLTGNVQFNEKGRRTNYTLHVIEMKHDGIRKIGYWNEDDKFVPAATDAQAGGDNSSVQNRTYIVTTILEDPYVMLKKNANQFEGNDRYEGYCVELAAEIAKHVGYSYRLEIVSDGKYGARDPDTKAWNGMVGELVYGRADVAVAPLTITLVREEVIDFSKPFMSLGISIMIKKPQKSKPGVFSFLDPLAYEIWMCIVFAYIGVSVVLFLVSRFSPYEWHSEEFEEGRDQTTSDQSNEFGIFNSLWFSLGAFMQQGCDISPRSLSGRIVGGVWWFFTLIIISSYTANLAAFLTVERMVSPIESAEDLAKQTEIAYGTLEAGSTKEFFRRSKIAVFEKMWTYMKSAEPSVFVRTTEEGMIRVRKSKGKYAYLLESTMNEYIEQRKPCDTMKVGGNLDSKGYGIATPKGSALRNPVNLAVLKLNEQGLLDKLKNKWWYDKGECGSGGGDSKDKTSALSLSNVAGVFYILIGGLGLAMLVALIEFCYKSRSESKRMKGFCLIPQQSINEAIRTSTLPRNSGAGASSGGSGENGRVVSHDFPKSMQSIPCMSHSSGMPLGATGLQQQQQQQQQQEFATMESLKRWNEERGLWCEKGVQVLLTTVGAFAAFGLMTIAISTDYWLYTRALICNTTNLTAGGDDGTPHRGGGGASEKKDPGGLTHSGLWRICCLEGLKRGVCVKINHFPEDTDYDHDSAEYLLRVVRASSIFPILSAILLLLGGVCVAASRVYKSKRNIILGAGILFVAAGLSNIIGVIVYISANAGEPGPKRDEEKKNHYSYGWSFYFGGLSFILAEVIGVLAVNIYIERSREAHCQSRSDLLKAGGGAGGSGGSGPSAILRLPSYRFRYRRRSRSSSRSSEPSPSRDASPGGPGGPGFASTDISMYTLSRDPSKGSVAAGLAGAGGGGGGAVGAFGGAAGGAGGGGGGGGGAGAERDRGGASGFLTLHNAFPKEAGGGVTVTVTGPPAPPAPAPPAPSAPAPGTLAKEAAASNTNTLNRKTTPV
Method in brief: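 Potency is the midpoint of a four-parameter logistic fit to control-normalized FLIPR calcium responses elicited by 15 μM glutamate. Stable HEK293 cells carried a fused GluA1o-γ8 construct and were preincubated with compound and calcium dye in pH 7.4 HEPES buffer.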

IC50 | SMILES
15.8 nM | CC(C)c1nn2c(N3CCOCC3)nccc2c1-c1ccc2[nH]c(=O)sc2c1 [Example 240, 6-(2-Isopropyl-7-morpholino-pyrazolo[1,5-c]pyrimidin-3-yl)-3H-1,3-benzothiazol-2-one]
79.4 nM | COc1nccn2c(-c3ccc4c(c3)CC(=O)N4)c(-c3ccc(F)cc3)nc12 [Example 247, 5-[2-(4-Fluorophenyl)-8-methoxy-imidazo[1,2-a]pyrazin-3-yl]indolin-2-one]
1.58 nM | CC1C(=O)N(C)CCN1c1nccn2c(-c3ccc4c(c3)CC(=O)N4)c(-c3ccc(F)cc3)nc12 (stereo not shown) [Example 111, 5-(8-(2,4-Dimethyl-3-oxopiperazin-1-yl)-2-(4-fluorophenyl)imidazo[1,2-a]pyrazin-3-yl)indolin-2-one]
501 nM | O=c1[nH]c2ccc(-c3c(C4CC4)nc4cnc(C(F)(F)F)cn34)cc2s1 [Example 216, 6-[2-Cyclopropyl-6-(trifluoromethyl)imidazo[1,2-a]pyrazin-3-yl]-3H-1,3-benzothiazol-2-one]
0.316 nM | O=C1Cc2cc(-c3c(-c4ccccc4)nn4c(N5CC[C@@H](O)[C@H](F)C5)nccc34)ccc2N1 (relative stereo) [Example 193, trans-5-[7-(3-Fluoro-4-hydroxy-1-piperidyl)-2-phenyl-pyrazolo[1,5-c]pyrimidin-3-yl]indolin-2-one]
25.1 nM | O=C(NCc1ccccc1)c1nc2c(N3CCOCC3)nccn2c1-c1ccc2[nH]c(=O)[nH]c2c1 [Example 139, N-Benzyl-8-morpholino-3-(2-oxo-1,3-dihydrobenzimidazol-5-yl)imidazo[1,2-a]pyrazine-2-carboxamide]
0.0794 nM | O=C1CCN(c2nccc3c(-c4ccc5c(c4)CC(=O)N5)c(-c4ccc(F)cc4)nn23)CC1 [Example 174, 5-[2-(4-Fluorophenyl)-7-(4-oxo-1-piperidyl)pyrazolo[1,5-c]pyrimidin-3-yl]indolin-2-one]
2 nM | O=C1Cc2cc(-c3c(-c4ccc(F)cc4)nn4c(N5CC(CO)C5)nccc34)ccc2N1 [Example 180, 5-[2-(4-Fluorophenyl)-7-[3-(hydroxymethyl)azetidin-1-yl]pyrazolo[1,5-c]pyrimidin-3-yl]indolin-2-one]
200 nM | CC(C)(C)c1nn2c(N3CCC(O)CC3)nccc2c1-c1ccc2c(c1)CC(=O)N2 [Example 181, 5-[2-tert-Butyl-7-(4-hydroxy-1-piperidyl)pyrazolo[1,5-c]pyrimidin-3-yl]indolin-2-one]
1.26 nM | O=C(c1ccccc1)c1nc2c(N3CCOCC3)nccn2c1-c1ccc2[nH]c(=O)oc2c1 [Example 156, 6-(2-Benzoyl-8-morpholino-imidazo[1,2-a]pyrazin-3-yl)-3H-1,3-benzoxazol-2-one]
0.0501 nM | O=c1[nH]c2ccc(-c3c(-c4ccccc4)nn4c(N5CCOCC5)nccc34)cc2s1 [Example 242, 6-(7-Morpholino-2-phenyl-pyrazolo[1,5-c]pyrimidin-3-yl)-3H-1,3-benzothiazol-2-one]
0.1 nM | CC1(O)CCN(c2nccn3c(-c4ccc5c(c4)CC(=O)N5)c(-c4ccc(F)cc4)nc23)CC1 [Example 68, 5-[2-(4-Fluorophenyl)-8-(4-hydroxy-4-methyl-1-piperidyl)imidazo[1,2-a]pyrazin-3-yl]indolin-2-one]
3.16 nM | O=S1(=O)Cc2cc(-c3c(-c4ccc(F)cc4)nc4c(N5CCC(O)CC5)nccn34)ccc2N1 [Example 119, 1-[3-(2,2-Dioxo-1,3-dihydro-2,1-benzothiazol-5-yl)-2-(4-fluorophenyl)imidazo[1,2-a]pyrazin-8-yl]piperidin-4-ol]
63.1 nM | Oc1ccc(-c2c(-c3ccccc3F)nc3c(N4CCOCC4)nccn23)cc1 [Example 84, 4-[2-(2-Fluorophenyl)-8-morpholino-imidazo[1,2-a]pyrazin-3-yl]phenol]
39.8 nM | Cc1cnc(N2CCOCC2)n2nc(C(C)C)c(-c3ccc4[nH]ncc4c3)c12 [Example 239, 4-[3-(1H-Indazol-5-yl)-2-isopropyl-4-methyl-pyrazolo[1,5-c]pyrimidin-7-yl]morpholine]
316 nM | O=C(NC1CC1)c1nc2c(N3CCOCC3)nccn2c1-c1ccc2[nH]c(=O)[nH]c2c1 [Example 146, N-Cyclopropyl-8-morpholino-3-(2-oxo-1,3-dihydrobenzimidazol-5-yl)imidazo[1,2-a]pyrazine-2-carboxamide]
200 nM | Oc1ccc(-c2c(C3CCCCC3)nc3c(N4CCOCC4)nccn23)cc1 [Example 85, 4-(2-Cyclohexyl-8-morpholino-imidazo[1,2-a]pyrazin-3-yl)phenol]
0.794 nM | CN(C)c1nccn2c(-c3ccc4c(c3)CC(=O)N4)c(-c3ccc(F)cc3)nc12 [Example 141, 5-[8-(Dimethylamino)-2-(4-fluorophenyl)imidazo[1,2-a]pyrazin-3-yl]indolin-2-one]
794 nM | O=C1Cc2cc(-c3c(C4CCC4)nn4cnc(C(F)(F)F)cc34)ccc2N1 [Example 226, 5-[2-Cyclobutyl-5-(trifluoromethyl)pyrazolo[1,5-c]pyrimidin-3-yl]indolin-2-one]

IC50 | SMILES
7.94 nM | O=C1Cc2cc(-c3c(C4CCCCC4)nc4c(N5CCOCC5)nccn34)ccc2N1 [Example 56, 5-(2-Cyclohexyl-8-morpholino-imidazo[1,2-a]pyrazin-3-yl)indolin-2-one]
7.94 nM | O=C(c1ccccc1)c1nc2c(N3CCOCC3)nccn2c1-c1ccc2c(c1)CS(=O)(=O)N2 [Example 159, [3-(2,2-Dioxo-1,3-dihydro-2,1-benzothiazol-5-yl)-8-morpholino-imidazo[1,2-a]pyrazin-2-yl]-phenyl-methanone]
0.631 nM | O=C1Cc2cc(-c3c(-c4ccc(F)cc4)nn4c(N5CCS(=O)(=O)CC5)nccc34)ccc2N1 [Example 170, 5-[7-(1,1-Dioxo-1,4-thiazinan-4-yl)-2-(4-fluorophenyl)pyrazolo[1,5-c]pyrimidin-3-yl]indolin-2-one]
398 nM | CS(=O)(=O)c1nccn2c(-c3ccc4c(c3)CC(=O)N4)c(-c3ccc(F)cc3)nc12 [Example 127, 5-[2-(4-Fluorophenyl)-8-methylsulfonyl-imidazo[1,2-a]pyrazin-3-yl]indolin-2-one]
0.631 nM | COC1CCN(c2nccc3c(-c4ccc5[nH]ncc5c4)c(-c4ccccc4)nn23)CC1 [Example 234, 3-(1H-Indazol-5-yl)-7-(4-methoxy-1-piperidyl)-2-phenyl-pyrazolo[1,5-c]pyrimidine]
2.51 nM | COC1CCN(c2nccc3c(-c4ccc5[nH]c(=O)sc5c4)c(C(C)C)nn23)CC1 [Example 241, 6-[2-Isopropyl-7-(4-methoxy-1-piperidyl)pyrazolo[1,5-c]pyrimidin-3-yl]-3H-1,3-benzothiazol-2-one]
3.98 nM | CCN(CC)c1nccn2c(-c3ccc4c(c3)CC(=O)N4)c(-c3ccc(F)cc3)nc12 [Example 51, 5-[8-(Diethylamino)-2-(4-fluorophenyl)imidazo[1,2-a]pyrazin-3-yl]indolin-2-one]
25.1 nM | CNc1nccn2c(-c3ccc4c(c3)CC(=O)N4)c(-c3ccc(F)cc3)nc12 [Example 167, 5-[2-(4-Fluorophenyl)-8-(methylamino)imidazo[1,2-a]pyrazin-3-yl]indolin-2-one]
0.398 nM | O=C1Cc2cc(-c3c(-c4ccc(F)cc4)nc4c(N5CCS(=O)(=O)CC5)nccn34)ccc2N1 [Example 47, 5-[8-(1,1-Dioxo-1,4-thiazinan-4-yl)-2-(4-fluorophenyl)imidazo[1,2-a]pyrazin-3-yl]indolin-2-one]
31.6 nM | CC1(C)COCCN1c1nccn2c(-c3ccc4c(c3)CC(=O)N4)c(-c3ccc(F)cc3)nc12 [Example 50, 5-[8-(3,3-Dimethylmorpholin-4-yl)-2-(4-fluorophenyl)imidazo[1,2-a]pyrazin-3-yl]indolin-2-one]
3.98 nM | CC(=O)N1CCN(c2nccn3c(-c4ccc5[nH]c(=O)[nH]c5c4)c(Cc4ccccc4)nc23)CC1 [Example 19, 5-[8-(4-Acetylpiperazin-1-yl)-2-benzyl-imidazo[1,2-a]pyrazin-3-yl]-1,3-dihydrobenzimidazol-2-one]
0.0631 nM | O=C1Cc2cc(-c3c(-c4ccccc4)nc4c(N5CCC(F)CC5)nccn34)ccc2N1 [Example 75, 5-[8-(4-Fluoro-1-piperidyl)-2-phenyl-imidazo[1,2-a]pyrazin-3-yl]indolin-2-one]
0.398 nM | O=C1Cc2cc(-c3c(-c4ccccc4)nc4c(N5CCC(CCF)CC5)nccn34)ccc2N1 [Example 77, 5-[8-[4-(2-Fluoroethyl)-1-piperidyl]-2-phenyl-imidazo[1,2-a]pyrazin-3-yl]indolin-2-one]
1.58 nM | O=C1Cc2cc(-c3c(C(=O)c4ccccc4)nc4c(N5CCC(O)CC5)nccn34)ccc2N1 [Example 154, 5-[2-Benzoyl-8-(4-hydroxy-1-piperidyl)imidazo[1,2-a]pyrazin-3-yl]indolin-2-one]
63.1 nM | CC(C)(C)c1nn2c(N3CCOCC3)nccc2c1-c1ccc2c(c1)CC(=O)N2 [Example 182, 5-(2-tert-Butyl-7-morpholino-pyrazolo[1,5-c]pyrimidin-3-yl)indolin-2-one]
20 nM | O=c1[nH]c2ccc(-c3c(-c4ccccc4)nn4cnc(C(F)(F)F)cc34)cc2s1 [Example 224, 6-[2-phenyl-5-(trifluoromethyl)pyrazolo[1,5-c]pyrimidin-3-yl]-3H-1,3-benzothiazol-2-one]
6.31 nM | O=C1Cc2cc(-c3c(-c4ccc(F)cc4)nc4c(N5CCOCC5)ncc(F)n34)ccc2N1 [Example 161, 5-(5-Fluoro-2-(4-fluorophenyl)-8-morpholinoimidazo[1,2-a]pyrazin-3-yl)indolin-2-one]
0.794 nM | CC1COCCN1c1nccn2c(-c3ccc4c(c3)CC(=O)N4)c(-c3ccc(F)cc3)nc12 (stereo not shown) [Example 39, 5-[2-(4-Fluorophenyl)-8-(3-methylmorpholin-4-yl)imidazo[1,2-a]pyrazin-3-yl]indolin-2-one]
